Experimental data as given in US6610504B1, “Methods of determining SAM-dependent methyltransferase activity using a mutant SAH hydrolase” (General Atomics, priority 2000, dated 2003).
Numbering of substitutions follows the chain as printed. In names and notes the source's numbering stands.

Experiments:
[1] = target: T1, serum vitamin D binding protein (Homo sapiens, UniProt P02774); conditions: binding to serum vitamin D binding protein, Langmuir isotherm, nonlinear least-squares fit; cited from earlier work
T1 sequence (P02774 17-474): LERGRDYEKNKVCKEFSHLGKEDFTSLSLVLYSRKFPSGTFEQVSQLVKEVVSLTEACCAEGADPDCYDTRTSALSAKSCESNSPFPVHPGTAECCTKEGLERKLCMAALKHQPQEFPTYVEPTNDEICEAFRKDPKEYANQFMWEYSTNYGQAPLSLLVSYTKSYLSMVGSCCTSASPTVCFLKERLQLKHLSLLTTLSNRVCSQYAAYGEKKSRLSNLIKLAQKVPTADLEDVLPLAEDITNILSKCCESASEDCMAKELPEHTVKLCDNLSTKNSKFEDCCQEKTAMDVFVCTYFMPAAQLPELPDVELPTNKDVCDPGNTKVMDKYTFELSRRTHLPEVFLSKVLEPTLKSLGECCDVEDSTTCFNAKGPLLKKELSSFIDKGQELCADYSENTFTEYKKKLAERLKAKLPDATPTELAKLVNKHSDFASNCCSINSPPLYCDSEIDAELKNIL

[2] = target: T2, keratinocyte lipid-binding protein (KLBP) (Mus musculus, UniProt Q05816); conditions: read-out: apparent dissociation constant (Kd); probe binding to KLBP; cited from earlier work
T2 sequence (Q05816 1-135): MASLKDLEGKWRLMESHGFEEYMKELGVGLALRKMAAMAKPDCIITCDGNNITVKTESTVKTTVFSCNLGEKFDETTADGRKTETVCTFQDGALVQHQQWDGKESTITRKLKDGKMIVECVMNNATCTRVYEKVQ

[3] = target: cellular retinoic acid-binding protein I (CRABPI) (Homo sapiens, UniProt P29762); conditions: read-out: apparent dissociation constant; probe binding to CRABPI; cited from earlier work
cellular retinoic acid-binding protein I (CRABPI), sequence (P29762 whole entry, species assumed): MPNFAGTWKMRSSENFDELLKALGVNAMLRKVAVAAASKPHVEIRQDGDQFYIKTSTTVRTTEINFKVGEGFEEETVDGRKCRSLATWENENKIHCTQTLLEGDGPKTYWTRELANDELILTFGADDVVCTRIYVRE

[4] = target: T3, cellular retinol-binding protein (CRBP) (Homo sapiens, UniProt P09455); conditions: read-out: apparent dissociation constant; probe binding to CRBP; cited from earlier work
T3 sequence (P09455 1-135): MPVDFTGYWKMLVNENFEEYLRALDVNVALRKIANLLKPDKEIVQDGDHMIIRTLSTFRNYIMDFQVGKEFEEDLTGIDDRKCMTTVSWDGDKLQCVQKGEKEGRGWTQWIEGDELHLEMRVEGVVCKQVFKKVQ

ALBP = target: T4, ALBP (Mus musculus, UniProt P04117); conditions: displacement of 1,8-ANS from ALBP, cited from earlier work; for Ki: read-out: apparent inhibitor constant (Ki)
T4 sequence (P04117 1-132): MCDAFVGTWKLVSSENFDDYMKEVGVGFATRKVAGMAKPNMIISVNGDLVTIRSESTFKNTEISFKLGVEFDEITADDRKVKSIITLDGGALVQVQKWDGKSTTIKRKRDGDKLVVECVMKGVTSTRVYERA

KLBP = target: T5, KLBP (Mus musculus, UniProt Q05816); conditions: displacement of 1,8-ANS from KLBP; cited from earlier work
T5 sequence (Q05816 1-135): T2 sequence (Q05816 1-135)

CRBP = target: T6, CRBP (Homo sapiens, UniProt P09455); conditions: displacement of 1,8-ANS from CRBP; cited from earlier work
T6 sequence (P09455 1-135): T3 sequence (P09455 1-135)

SAH hydrolase = target: T7, SAH hydrolase (Homo sapiens, UniProt P23526); test: SAH hydrolase activity, hydrolytic direction (kinetic constants for SAH); format: biochemical; conditions: substrate SAH
T7 construct: made in house; host or cells: E. coli JM109, vector pKK223-3
T7 sequence (P23526 whole entry): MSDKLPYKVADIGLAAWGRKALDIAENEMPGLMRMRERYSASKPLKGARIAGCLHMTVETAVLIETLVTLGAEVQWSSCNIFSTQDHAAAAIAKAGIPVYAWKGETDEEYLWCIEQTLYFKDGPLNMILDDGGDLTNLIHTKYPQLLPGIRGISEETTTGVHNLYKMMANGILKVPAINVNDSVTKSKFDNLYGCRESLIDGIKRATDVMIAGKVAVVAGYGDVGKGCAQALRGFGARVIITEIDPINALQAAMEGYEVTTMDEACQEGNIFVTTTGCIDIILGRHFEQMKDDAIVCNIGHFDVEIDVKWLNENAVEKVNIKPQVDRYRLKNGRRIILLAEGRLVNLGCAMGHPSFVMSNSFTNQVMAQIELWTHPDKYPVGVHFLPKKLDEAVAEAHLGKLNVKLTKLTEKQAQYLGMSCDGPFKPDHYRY
Protocol: The assay of SAH hydrolase activity in the hydrolytic direction was performed as described in Yuan et al., J. Biol. Chem., 271:28008-28016, 1996). The assay measures the hydrolysis of SAH into Ado and Hcy. The reaction product Hcy was derivatized by thiol specific reagent DTNB for colometric determination at 412 nm. The assay for SAH hydrolase in the synthetic direction was measured by the formation of SAH from substrate Ado and Hcy using HPLC (see, Yuan et al., J. Biol. Chem., 268:17030-17037 (1993). One unit of the enzyme activity was defined as the amount of enzyme that can hydrolyze or synthesize 1 μmole of SAH/min/mg.
Mutant SAH hydrolase (e.g., F302S) was specifically fluorescence labels on Cys421, an non-essential cysteine residue which is located on the surface of the protein that is not involved in substrate binding and catalysis. Cys421 residue is readily accessible by thiol reactive molecules, and can be modified without effect the binding affinity of the enzyme. Thiol specific reactive probes such as 7-diethylamino-3(4′-maleimidylphenyl)-4-methylcoumarin (CPM) can specifically label protein thiols. Mutant SAH hydrolase (F302S) (0.5 mg/ml) in 50 mM phosphate buffer, pH 7.2, was incubated with 2 mM of adenine to protect other thiols in the substrate binding site, followed by addition of CPM to final concentration of 50 μM. The reaction mixture was incubated at room temperature for 30 min. followed by gel filtration on a size exclusion column (Sephacryl S-300, […]×60 cm) to remove adenine and excess CPM. The CPM-labeled F302S mutant SAH hydrolase (2 mg/ml) was kept in 50 mM phosphate buffer containing 20% glycerol at −20° C. The comparison of Km (SAH) and Kcat (SAH) for wild type and mutant F302S is shown below in Table 10.

25-hydroxyvitamin D
Kd [1]: 5.59 µM

O=S(=O)(O)c1cccc2cccc(Nc3ccccc3)c12 [1,8-ANS, 1-anilinonapthalene 8-sulfonic acid]
Kd [2]: 0.53 µM
Kd [3]: 25 µM
Kd [4]: 7.7 µM

CCCCCCCC/C=C\CCCCCCCC(=O)O [Oleic acid]
Ki (ALBP): 0.134 µM
Ki (KLBP): 0.42 µM

CC1=C(/C=C/C(C)=C/C=C/C(C)=C/C=O)C(C)(C)CCC1 [all-trans-retinal]
Ki (CRBP): 1.7 µM

CC1=C(/C=C/C(C)=C/C=C/C(C)=C/C(=O)O)C(C)(C)CCC1 [all-trans-retinoic acid]
Ki (CRBP): 5.3 µM
Ki (ALBP): 0.87 µM
Ki (KLBP): 3.6 µM

CC1=C(/C=C/C(C)=C/C=C/C(C)=C/CO)C(C)(C)CCC1 [all-trans-retinol]
displacement of the fluorophore from ALBP (ALBP): did not displace
bound by KLBP (KLBP): neither octanoic acid nor all-trans-retinol were bound

CCCCC/C=C\C/C=C\C/C=C\C/C=C\CCCC(=O)O [arachidonic acid]
Ki (KLBP): 0.4 µM

CCCCCCCC(=O)O [octanoic acid]
displacement of the fluorophore from ALBP (ALBP): did not displace
bound by KLBP (KLBP): neither octanoic acid nor all-trans-retinol were bound

vitamin D
Kd [1]: 91.7 µM

B1: wild type: Human placental SAH hydrolase, wild type, expressed in E. coli JM109 (protein, UniProt P23526 2-432, looked up)
Adenosylhomocysteinase: SDKLPYKVADIGLAAWGRKALDIAENEMPGLMRMRERYSASKPLKGARIAGCLHMTVETAVLIETLVTLGAEVQWSSCNIFSTQDHAAAAIAKAGIPVYAWKGETDEEYLWCIEQTLYFKDGPLNMILDDGGDLTNLIHTKYPQLLPGIRGISEETTTGVHNLYKMMANGILKVPAINVNDSVTKSKFDNLYGCRESLIDGIKRATDVMIAGKVAVVAGYGDVGKGCAQALRGFGARVIITEIDPINALQAAMEGYEVTTMDEACQEGNIFVTTTGCIDIILGRHFEQMKDDAIVCNIGHFDVEIDVKWLNENAVEKVNIKPQVDRYRLKNGRRIILLAEGRLVNLGCAMGHPSFVMSNSFTNQVMAQIELWTHPDKYPVGVHFLPKKLDEAVAEAHLGKLNVKLTKLTEKQAQYLGMSCDGPFKPDHYRY
Kcat (SAH) (SAH hydrolase): 3.8 S^−1
Km (SAH hydrolase): 7.9 µM

B2: F302S: Mutant human SAH hydrolase, Phe 302 to Ser (protein, UniProt P23526 2-432, looked up, variant F302S)
Adenosylhomocysteinase: B1 Adenosylhomocysteinase with F301S
Kcat (SAH) (SAH hydrolase): 0.1 S^−1
Km (SAH hydrolase): 1 µM
